# Measured values published in PubChem BioAssay AID651977 (The Scripps Research Institute Molecular Screening Center, 2013).
# Active and inactive are the calls of the source. The rule behind the calls is not given here.
# Target: Steroidogenic factor 1 (Homo sapiens) (UniProt Q13285)
# Test: SF1 (NR5A1) inverse agonist potency, late-stage follow-up, selectivity assay for LRH-1 inverse agonist project, cell-based, luminescence, dose response (AID 651977)
# Conditions: SF1 cell-based luciferase reporter, inverse agonism
# Chain of Steroidogenic factor 1 (Homo sapiens) (Q13285 whole entry, looked up): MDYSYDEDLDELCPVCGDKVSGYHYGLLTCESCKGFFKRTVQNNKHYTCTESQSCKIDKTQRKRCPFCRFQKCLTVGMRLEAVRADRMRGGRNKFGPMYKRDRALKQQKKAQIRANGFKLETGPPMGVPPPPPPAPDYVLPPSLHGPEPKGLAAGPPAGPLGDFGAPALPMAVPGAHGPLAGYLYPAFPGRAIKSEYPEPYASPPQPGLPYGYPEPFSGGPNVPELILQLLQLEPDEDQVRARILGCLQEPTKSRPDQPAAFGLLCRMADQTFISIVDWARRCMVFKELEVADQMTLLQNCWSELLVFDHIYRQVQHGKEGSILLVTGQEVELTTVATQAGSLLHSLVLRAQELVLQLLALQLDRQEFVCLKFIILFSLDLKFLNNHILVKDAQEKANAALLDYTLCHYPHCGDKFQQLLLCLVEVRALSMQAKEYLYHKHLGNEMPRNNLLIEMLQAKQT
row,Structure (SMILES),IC50
1,NC(=O)C1CCN(C(=O)COc2ccc3c4c(c(=O)oc3c2)CCCC4)CC1,> 35.9 µM (inactive)
2,COc1ccc(C2(C)NC(=O)N(CC(=O)NCCC3=CCCCC3)C2=O)cc1OC (centres undefined),> 12 µM (inactive)
3,O=C1CCCN2N=C(SCC(=O)Nc3ccc(Br)cc3)SC2=N1,> 35.9 µM (inactive)
4,Cc1cc(=O)oc2c(C)c(OCC(=O)NC3CC(C)(C)NC(C)(C)C3)ccc12,> 35.9 µM (inactive)
5,COC(=O)c1ccc(NC(=O)CSc2ccc(-c3ccccn3)nn2)cc1,> 35.9 µM (inactive)
6,COc1ccc(CCNC(=O)COC(=O)c2cccn2C)cc1,> 35.9 µM (inactive)
7,Cc1cccc(NC(=O)COC(=O)Cc2cccs2)c1C,> 35.9 µM (inactive)
8,Cc1ccc2cccc(OCC(=O)NCCC3=CCCCC3)c2n1,2.22 µM
9,CCCc1nnc(SCC(=O)Nc2ccc(C(=O)OCC)cc2)o1,> 35.9 µM (inactive)
10,COc1ccc(NC(=O)CSc2ccc3c(c2)OCCO3)cc1,> 35.9 µM (inactive)
11,CC1SC(C)C(=O)N(CC(=O)Nc2ccc3c(c2)OCO3)C1=O (centres undefined),> 35.9 µM (inactive)
12,O=C(COC(=O)c1ccc(=O)n(Cc2ccccc2)n1)Nc1ccc2c(c1)OCCO2,> 35.9 µM (inactive)
13,CCc1cc(=O)[nH]c(SCC(=O)Nc2ccc3c(c2)OCCO3)n1,> 35.9 µM (inactive)
14,CCOc1ccc(NC(=O)CN2CCN(CC(=O)Nc3ccc(OC)cc3)CC2)cc1,> 35.9 µM (inactive)
15,COc1ccc(NC(=O)CSc2sc3c(O)cc(=O)[nH]c3c2C#N)c(OC)c1,> 35.9 µM (inactive)
16,COc1ccc(CCNC(=O)COC(=O)Cc2ccccc2[N+](=O)[O-])cc1,> 12 µM (inactive)
17,CCc1cc(=O)oc2c(C)c(OCC(=O)NCCN3CCOCC3)ccc12,inactive
18,CCOc1ccc(OCCC(=O)OCC(=O)Nc2ccc3c(c2)OCCO3)cc1,> 35.9 µM (inactive)
19,Cc1ccc(NC(=O)CSc2sc3c(O)cc(=O)[nH]c3c2C#N)c(F)c1,> 35.9 µM (inactive)
20,Cc1cc(C)c2sc(NC(=O)c3ccc([N+](=O)[O-])o3)nc2c1,> 35.9 µM (inactive)
21,CCOc1ccc(NC(=O)COC(=O)c2ccc3c(c2)OCCO3)cc1,> 12 µM (inactive)
22,O=C(CSc1nc(=O)n2cc(Cl)ccc2n1)Nc1ccc2c(c1)OCCO2,inactive
23,Cc1cc(OCC(=O)Nc2nccs2)c2c(C)cc(=O)oc2c1,> 35.9 µM (inactive)

row,Structure (SMILES),IC50
1,Cc1ccn2c(=O)nc(SCC(=O)Nc3ccc4c(c3)OCCO4)nc2c1,> 35.9 µM (inactive)
2,Cc1cc(Br)ccc1NC(=O)CSc1nnc(CN2CCOCC2)n1C,> 35.9 µM (inactive)
3,CCCN(CC(=O)Nc1ccc(C(C)=O)cc1)CC(=O)Nc1ccccc1C,inactive
4,COc1ccc(NC(=O)CN2C(=O)NC3(CCCC3)C2=O)cc1,> 35.9 µM (inactive)
5,COc1ccccc1Oc1nnnn1-c1ccc(C(N)=O)cc1,inactive
6,O=C(Nc1nc2c(Cl)cccc2s1)c1ccc([N+](=O)[O-])o1,> 12 µM (inactive)
7,Cc1ccc(NC(=O)COC(=O)c2cc(=O)c3ccccc3o2)c(Br)c1,> 35.9 µM (inactive)
8,O=C(COc1ccc2c3c(c(=O)oc2c1)CCCC3)NCc1ccccn1,> 35.9 µM (inactive)
9,CCCc1cc(=O)oc2c(C)c(OCC(=O)NCCN3CCOCC3)ccc12,5.64 µM
10,COC(=O)c1ccc(NC(=O)CSc2nc3ncccc3[nH]2)cc1,> 35.9 µM (inactive)
11,O=C(COC(=O)c1ccc[n+]([O-])c1)Nc1ccc([N+](=O)[O-])cc1Cl,> 35.9 µM (inactive)
12,COc1ccc(NC(=O)COC(=O)c2cc(S(=O)(=O)N3CCCC3)ccc2O)cc1,> 35.9 µM (inactive)
13,CCOc1ccc(OCCN2C(=O)NC(Cc3c[nH]c4ccccc34)C2=O)cc1 (centres undefined),inactive
14,CCCc1cc(=O)oc2cc(OCC(=O)NCc3ccccn3)ccc12,> 35.9 µM (inactive)
15,O=C(COC(=O)CCN1C(=O)C2CC=CCC2C1=O)NCCc1ccc(F)cc1 (centres undefined),> 35.9 µM (inactive)
16,CC(=O)c1ccc(NC(=O)C(C)O/N=C(\N)c2ccccc2)cc1 (centres undefined),inactive
17,CC(=O)Nc1ncc(Cc2cc(Cl)ccc2Cl)s1,inactive
18,CCOc1ccc(NC(=O)CSc2nncc(=O)n2N)cc1,> 35.9 µM (inactive)
19,O=C(NCC1CCCO1)c1ccc(NC(=O)c2cccc([N+](=O)[O-])c2)cc1 (centres undefined),1.02 µM
20,Cc1ccc(NC(=O)COC(=O)C(NS(=O)(=O)c2ccc(Cl)cc2)C(C)O)c(Br)c1 (centres undefined),> 35.9 µM (inactive)
21,CC(=O)c1ccc(OC(C)C(=O)OCC(=O)NCCc2ccccc2)cc1 (centres undefined),> 35.9 µM (inactive)
22,COc1ccc(NC(=O)CSc2nc(N)c(-c3ccccc3)c(=O)[nH]2)cc1,9.92 µM
23,N#CCSc1ccccc1NC(=O)CN1C(=O)C2CC=CCC2C1=O (centres undefined),> 35.9 µM (inactive)

row,Structure (SMILES),IC50
1,Cc1ccc(-c2csc(NC(=O)c3ccc([N+](=O)[O-])o3)n2)cc1,> 35.9 µM (inactive)
2,COc1ccc(CCNC(=O)COC(=O)C23CC4CC(CC(C4)C2)C3)cc1,4.42 µM
3,COC(=O)c1ccc(NC(=O)CN2CCN(c3ccc(Cl)cc3)CC2)cc1,> 35.9 µM (inactive)
4,COc1ccc(CCNC(=O)CSc2nn3c(=O)c(C)nnc3s2)cc1OC,5.7 µM
5,O=C(CSc1nnc(CNC(=O)c2c(F)cccc2F)o1)Nc1ccc2c(c1)OCCO2,inactive
6,CC(=O)Nc1ccc(N=c2cc([N+](=O)[O-])cc(Cl)n2O)cc1,> 12 µM (inactive)
7,Cc1ccc(NC(=O)CSc2nc3[nH]c(=O)cc(O)c3s2)c(Br)c1,> 35.9 µM (inactive)
8,CCCc1cc(=O)oc2cc(C)cc(OCC(=O)NC3CC3)c12,2.67 µM
9,COc1ccc(-n2c(N)c(C(=O)NCc3cccnc3)sc2=S)cc1,> 35.9 µM (inactive)
10,CCCc1cc(=O)oc2cc(OCC(=O)NCCc3ccc(S(N)(=O)=O)cc3)ccc12,inactive
11,CCc1c(C)nc(SCC(=O)Nc2ccc3c(c2)OCCO3)[nH]c1=O,7.83 µM
12,Cc1cc(C)c2nc(NC(=O)c3ccc([N+](=O)[O-])o3)sc2c1,> 35.9 µM (inactive)
13,CCOc1ccc(NC(=O)COC(=O)COc2cccc3c2OC(C)(C)C3)cc1,> 35.9 µM (inactive)
14,COc1ccc(NC(=O)COC(=O)c2c(-c3ccccc3)noc2C)cc1,3.19 µM
15,O=c1[nH]c(Nc2ccc3c(c2)OCCO3)nnc1Cc1ccccc1,> 12 µM (inactive)
16,COc1ccc(NC(=O)CSc2nnc3ccc(-c4cccnc4)nn23)cc1OC,1.59 µM
17,O=C(NCc1ccco1)c1nn(-c2ccccc2)c(=O)c2ccccc12,> 35.9 µM (inactive)
18,COC(=O)c1ccc(NC(=O)CSc2nn3c(=O)c(C)nnc3s2)cc1,> 35.9 µM (inactive)
19,Cc1nn(CC(=O)Nc2ccc3c(c2)OCCO3)c(C)c1[N+](=O)[O-],> 35.9 µM (inactive)
20,CCCc1cc(=O)oc2c(C)c(OCC(=O)NCCCn3ccnc3)ccc12,6.68 µM
21,CCOc1ccc(NC(=O)COC(=O)CC2CCCCC2)cc1,> 35.9 µM (inactive)
22,Cc1cc(Br)ccc1NC(=O)CN1C(=O)C2CC=CCC2C1=O (centres undefined),0.351 µM
23,O=C(Nc1ccc(Br)cn1)c1ccc([N+](=O)[O-])o1,> 35.9 µM (inactive)

row,Structure (SMILES),IC50
1,COc1ccc(NS(=O)(=O)c2ccc(OCC(=O)N3CCN(C)CC3)cc2)cc1Cl,9.99 µM
2,COC(=O)c1ccc(NC(=O)COc2cccc(-n3cnnn3)c2)cc1,> 12 µM (inactive)
3,COC(=O)c1ccc(NC(=O)CSc2nncn2-c2cccnc2)cc1,> 35.9 µM (inactive)
4,COc1ccc(CCNC(=O)COC(=O)c2cc(Cl)nc(Cl)c2)cc1,> 35.9 µM (inactive)
5,COCCn1c(C)cc(/C=C(\C#N)C(=O)OCC(=O)Nc2ccc(S(N)(=O)=O)cc2)c1C,> 35.9 µM (inactive)
6,O=C(OCC(=O)N1CCN(C(=O)COC(=O)c2ccc(O)cc2O)CC1)c1ccc(O)cc1O,3.55 µM
7,CCOc1ccc(NC(=O)CSc2nnc(C(C)C)n2CC)cc1,> 35.9 µM (inactive)
8,Cc1ccc(NC(=O)COC(=O)C(NS(=O)(=O)c2ccc(Cl)cc2)C(C)O)cc1C (centres undefined),2.28 µM
9,Cc1cccc(NC(=O)COC(=O)CN2C(=O)c3ccccc3C2=O)c1C,> 35.9 µM (inactive)
10,CCOc1ccc(NC(=O)CSc2nc3[nH]ncc3c(=O)[nH]2)cc1,> 35.9 µM (inactive)
11,COC(=O)c1ccc(CNC(=O)COC(=O)c2cc(Cl)nc(Cl)c2)cc1,inactive
12,O=C(Nc1ccccc1)c1oc2ccccc2c1NC(=O)C1CC1,inactive
13,COc1ccc(CCNC(=O)CSc2ccc(NC(C)=O)cc2)cc1OC,8.79 µM
14,COc1ccc(CCNC(=O)CSc2nc3[nH]c(=O)cc(O)c3s2)cc1,> 35.9 µM (inactive)
15,Cc1sc(NC(=O)C(C)C)c(C(=O)Nc2ccccc2)c1C,9.22 µM
16,O=C(CSc1nnc(CNC(=O)c2ccccc2F)o1)Nc1ccc2c(c1)OCCO2,> 35.9 µM (inactive)
17,O=C(COc1ccc2c3c(c(=O)oc2c1)CCC3)NCc1ccncc1,> 35.9 µM (inactive)
18,CCn1c(SCC(=O)Nc2ccc(Cl)cc2)nnc1C1CC1,> 35.9 µM (inactive)
19,O=C(Nc1ccc(S(=O)(=O)N2CCOCC2)cc1)c1cccc([N+](=O)[O-])c1,> 12 µM (inactive)
20,COCC(=O)NC1CCN(CC(=O)Nc2ccc(OC)cc2[N+](=O)[O-])CC1,> 35.9 µM (inactive)
